From patent US6900193B1, “Structural modification of 19-norprogesterone I: 17-α-substituted-11-β-substituted-4-aryl and 21-substituted 19-norpregnadienedione as new antiprogestational agents” (The United States of America as represented by the …, priority 1996, dated 2005)
Entries after “also recorded” stand apart in the source; their conditions may differ.

How the values were obtained:
[1] = system: pregnancy (number and condition of conceptuses); assay: Postcoital test; assay type: in vivo, rat; conditions: oral; for postcoital contraceptive activity relative to the standard, in words: days 0-3 of gestation, versus 69B; for Postcoital MED100: rat, days 0-3
[2] = system: progesterone-induced endometrial proliferation; assay: AntiClauberg test; assay type: in vivo, rabbit; parameters: key to ANTIPROGESTATIONAL Anti-Clauberg: relative oral potency vs. reference compound set to 100; conditions: for BIOLOGICAL ACTIVITY antiClauberg: Table 2; for BIOLOGICAL ACTIVITY antiClauberg / ANTIPROGESTATIONAL Anti-Clauberg: CDB-2914 = 100 (assigned); for antiClauberg / oral antiprogestational activity, in words: versus the standard 69B; for ANTIPROGESTATIONAL Anti-Clauberg: relative potency; for ANTIPROGESTATIONAL ACTIVITY ANTI-CLAUBERG: estrogen-primed immature rabbits, CDB-2477 = 1.0 (assigned)
In short: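 Immature NZW rabbits were estradiol-primed s.c. for 6 days, then given progesterone 0.8 mg/day s.c. plus compound orally or s.c. for 5 days. Uteri were sectioned and H&E-scored for endometrial glandular proliferation (McPhail). Percent inhibition was calculated per dose versus progesterone-only animals.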

[3] = molecular target: T1, human isoform A progesterone receptor (Homo sapiens, UniProt P06401); assay: Relative binding affinity, human isoform A progesterone receptor; conditions: for BINDING AFFINITY Progester, figure in ( ): relative binding affinity of the human isoform A progesterone receptor: Table 2, figure in parentheses
T1 sequence (P06401 1-769 isoform P06401-2): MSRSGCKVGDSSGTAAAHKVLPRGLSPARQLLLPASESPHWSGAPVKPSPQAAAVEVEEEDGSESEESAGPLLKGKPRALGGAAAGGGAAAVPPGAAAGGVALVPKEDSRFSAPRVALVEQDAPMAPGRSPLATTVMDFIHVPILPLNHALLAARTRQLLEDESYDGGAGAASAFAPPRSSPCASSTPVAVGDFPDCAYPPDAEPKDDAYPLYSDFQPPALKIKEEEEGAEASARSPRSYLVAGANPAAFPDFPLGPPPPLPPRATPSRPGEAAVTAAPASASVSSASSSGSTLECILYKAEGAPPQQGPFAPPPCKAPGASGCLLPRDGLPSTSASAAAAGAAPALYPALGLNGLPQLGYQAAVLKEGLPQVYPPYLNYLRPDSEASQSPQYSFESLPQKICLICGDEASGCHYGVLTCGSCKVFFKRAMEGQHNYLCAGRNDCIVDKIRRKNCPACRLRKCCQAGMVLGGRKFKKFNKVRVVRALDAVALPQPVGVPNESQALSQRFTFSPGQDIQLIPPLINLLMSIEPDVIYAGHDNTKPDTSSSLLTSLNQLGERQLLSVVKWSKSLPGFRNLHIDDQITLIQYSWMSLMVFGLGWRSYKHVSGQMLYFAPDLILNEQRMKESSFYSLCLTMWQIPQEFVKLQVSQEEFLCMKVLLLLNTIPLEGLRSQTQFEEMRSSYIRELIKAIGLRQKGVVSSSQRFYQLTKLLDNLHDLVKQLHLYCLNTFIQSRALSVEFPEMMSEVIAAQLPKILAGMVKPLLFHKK

[4] = system: ovulation; assay: Antiovulatory test; assay type: in vivo, rat; conditions: for Antiovulatory MED100: oral, rat, single dose at noon on day of proestrus
Experimental: Antiovulatory Test […] female rats of the Sprague-Dawley strain weighing 200 to 250 g were maintained under standard laboratory conditions, 14 hours of light and 10 hours of darkness each day. Vaginal washings were obtained daily and evaluated microscopically to establish the estrous cycle of each animal. […] Each dose group consisted of eight rats and one group served as the vehicle control. Animals were dosed at noon on the day of proestrus and sacrificed 24 hours later when ova can usually be visualized in the distended ampulla of the oviduct using a dissecting microscope. The oviducts were excised, an incision made in the distended ampulla and the ova teased out in a drop of water on a microscope slide so that the number shed could be counted. Historically, control animals shed between 12 and 14 ova during each estrous cycle.

[5] = system: progesterone-induced endometrial proliferation; assay: AntiMcGinty test; assay type: in vivo, rabbit; conditions: for ANTIPROGESTATIONAL Anti-McGinty: relative potency, CDB-2914 = 100 (assigned), rabbit; for ANTIPROGESTATIONAL Anti-McGinty / ANTIPROGESTATIONAL ACTIVITY ANTI-MCGINITY: intraluminal; for antiprogestational activity compared with the lead compound / standard, in words: antiMcGinty (and antiClauberg), versus CDB-2914 (69B); for ANTIPROGESTATIONAL ACTIVITY ANTI-MCGINITY: estrogen-primed immature rabbits, CDB-2477 = 1.0 (assigned)
Experimental: AntiMcGinty Test (McGinty, et al., Endocrinology, 24:829-832 (1939))
Immature female rabbits of the New Zealand White breed (approx. 1 kg body weight) were maintained under standard laboratory conditions and received a subcutaneous injection of 5 μg estradiol in 10% ethanol/sesame oil daily for 6 consecutive days. Twenty-four hours after the last injection of estradiol (day 7) animals underwent sterile abdominal surgery to ligate a 3-4 cm segment of both uterine horns. The experimental compound in appropriate solvent (usually 10% ethanol/sesame oil) was injected intraluminally into the ligated segment of one uterine horn and the vehicle alone into the ligated segment of the contralateral horn. Injection volume was limited to 0.1 ml, and care was taken to prevent leakage. A stimulating dose of progesterone (0.8 mg/day) was administered subcutaneously to each rabbit daily for the next three days (days 7, 8 and 9) for the purpose of inducing endometrial proliferation. All animals were sacrificed on day 10 when a segment central to the ligatures was removed and fixed in 10% neutral buffered formalin and submitted for histological processing. Five micron sections stained with hematoxylin and eosin (H&E) were evaluated microscopically for the degree of endometrial glandular proliferation according to the method of McPhail (McPhail, J. Physiol., 83:145 (1934). The percent inhibition of endometrial proliferation for each rabbit was calculated and the mean of the group of five animals recorded.

[6] = system: ovulation; conditions: Dao, et al.; cited from earlier work
[7] = system: estrogen-insensitive T47Dco human breast cancer cells; conditions: Horwitz 1985; cited from earlier work
[8] = system: implantation; conditions: man; cited from earlier work
[9] = system: ovulation; conditions: Baulieu, et al.; cited from earlier work

Row | Compound | BIOLOGICAL ACTIVITY antiClauberg ([2]; oral) | antiClauberg / oral antiprogestational activity, in words ([2]; oral) | BINDING AFFINITY Progester, figure in ( ): relative binding affinity of the human isoform A progesterone receptor [3] | ANTIPROGESTATIONAL Anti-Clauberg ([2]; oral) | ANTIPROGESTATIONAL Anti-McGinty [5] | also measured
1 | COCC(=O)[C@@]1(OC)CC[C@H]2[C@@H]3CCC4=CC(=O)CCC4=C3[C@@H](c3ccc(N(C)C)cc3)C[C@@]21C [Compound 113a, 17α,21-Dimethoxy-11β-[4-(N,N-dimethylamino)phenyl]-19-norpregna-4,9-diene-3,20-dione] | 229 | greater activity than the standard; also recorded: more than twice as active at the standard | 237 | – | – | postcoital contraceptive activity relative to the standard, in words [1]: about half as effective as compound 69B; binding affinity for the human progesterone receptor (isoform A), in words [3]: high binding affinity
2 | CC(=O)O[C@]1(C(C)=O)CC[C@H]2[C@@H]3CCC4=CC(=O)CCC4=C3[C@@H](c3ccc(N4CCCCC4)cc3)C[C@@]21C [Compound 71, 17α-Acetoxy-11β-[4(N-Piperidino)phenyl]-19-norpregna-4,9-diene-3,20-dione] | 253 | greater activity than the standard | 203 | – | – | postcoital contraceptive activity relative to the standard, in words [1]: about four times the postcoital contraceptive activity of the standard; also recorded: four times as potent as the standard; Postcoital MED100 [1]: 0.5 mg/day; Antiovulatory MED100 [4]: >16 mg; antiovulatory activity relative to the standard ([4]; percent of the activity of 69B): about 5%; dose level at which not fully active, antiovulatory ([4]; versus 69B): > 16 times the MED100 for the standard
3 | CC(=O)O[C@]1(C(=O)CO)CCC2C3CCC4=CC(=O)CCC4=C3C(c3ccc(N(C)C)cc3)C[C@@]21C (stereo partly drawn) [Compound 41, 17α-acetoxy-21-hydroxy-11β-[4-(N,N-dimethylamino)phenyl]-19-norpregna-4,9-diene-3,20-dione] | – | greater activity than the standard | – | 140 | – | –
4 | CC(=O)OCC(=O)[C@@]1(OC(C)=O)CCC2C3CCC4=CC(=O)CCC4=C3C(c3ccc(N(C)C)cc3)C[C@@]21C (stereo partly drawn) [Compound 15, 17α,21-diacetoxy-11β-[4-(N,N-dimethylamino)phenyl]-19-norpregna-4,9-diene-3,20-dione] | – | greater activity than the standard | – | 279 | 300 | antiprogestational potency compared to the lead compound (CDB-2914), oral antiClauberg test ([2]; oral, versus CDB-2914): 2.79 times
5 | COCC(=O)C1(OC(C)=O)CCC2C3CCC4=CC(=O)CCC4=C3C(c3ccc(N4CCCCC4)cc3)CC21C (stereo not drawn) [Compound 123a, 17α-Acetoxy-1113-[4-(N-piperidino)phenyl]-21-methoxy-19-norpregna-4,9-diene-3,20-dione] | 45-83 | – | 140 | – | – | –
6 | CC(=O)O[C@]1(C(=O)CCl)CCC2C3CCC4=CC(=O)CCC4=C3C(c3ccc(N(C)C)cc3)C[C@@]21C (stereo partly shown) [Compound 14A] | – | – | – | 68 | 75 | antiprogestational activity compared with the lead compound / standard, in words [5]: did not show significant differences
7 | CN(C)c1ccc(C2CC3(C)C(CCC34OCC4=O)C3CCC4=CC(=O)CCC4=C23)cc1 (stereo not drawn) [Compound 12, 17-Spirooxetano-3′-oxo-11β-[4-(N,N-dimethylamino)phenyl]-19-norpregna-4,9-dien-3-one] | – | – | – | 29 | 26 | –
8 | CC(=O)O[C@]1(C(=O)CF)CCC2C3CCC4=CC(=O)CCC4=C3C(c3ccc(N(C)C)cc3)C[C@@]21C (stereo partly drawn) [Compound 13, 17α-acetoxy-21-fluoro-11β-[4-(N,N-dimethylamino)phenyl]-19-norpregna-4,9-diene-3,20-dione] | – | – | – | 80 | 103 | antiprogestational activity compared with the lead compound / standard, in words [5]: did not show significant differences
9 | CC(=O)O[C@]1(C(C)=O)CC[C@H]2[C@@H]3CCC4=CC(=O)CCC4=C3[C@@H](c3ccc(N(C)C)cc3)C[C@@]21C [Compound 69B, 17α-acetoxy-11β-(4-N,N-dimethylaminophenyl)-19-norpregna-4,9-diene-3,20-dione, reference compound] | 100 | – | 234 | 100 | 100 | Postcoital MED100 [1]: 2 mg/day; Antiovulatory MED100 [4]: 1 mg; potency of the standard relative to mifepristone in the antiClauberg test ([2]; oral administration): 3 times; ANTIPROGESTATIONAL ACTIVITY ANTI-CLAUBERG ([2]; oral): 3.27; potency of 69B relative to mifepristone in the antiClauberg test ([2]; oral, 95% C.I.=1.41-7.58, previous studies): 3.27 ×; ANTIPROGESTATIONAL ACTIVITY ANTI-MCGINITY [5]: 0.56; inhibition of ovulation in the rat [6]: inhibit ovulation
10 | CC(=O)OCC(=O)[C@@]1(OC(C)=O)CC[C@H]2[C@@H]3CCC4=CC(=O)CCC4=C3[C@@H](c3ccc(C(C)=O)cc3)C[C@@]21C [Compound 106b, 17α,21-Diacetoxy-11β-(4-acetylphenyl)19-norpregna-4,9-diene-3,20-dione] | 34 | – | 172 | – | – | –
11 | CC#C[C@]1(O)CC[C@H]2[C@@H]3CCC4=CC(=O)CCC4=C3[C@@H](c3ccc(N(C)C)cc3)C[C@@]21C [mifepristone] | – | – | – | – | – | growth inhibition of T47Dco human breast cancer cells [7]: growth-inhibitory properties; prevention of implantation [8]: prevent implantation; ANTIPROGESTATIONAL ACTIVITY ANTI-CLAUBERG ([2]; oral): 1.0; antiprogestational activity compared with the lead compound / standard, in words [5]: more potent than the standard; ANTIPROGESTATIONAL ACTIVITY ANTI-MCGINITY [5]: 1.0; inhibition of ovulation in the rat [6]: inhibit ovulation; effect on ovulation in human subjects [9]: affect ovulation
